Assay results published in the NIST ThermoML archive (doi:10.1021/je201009c).
± gives the expanded uncertainty stated by the source.

Assay: refractive index (Na D-line) (dimensionless); xn = mol fraction of the nth substance listed
Settings: Liquid, Standard Abbe refractometry

OCc1ccccc1 [benzenemethanol] + CCO
refractive index, 100.8 kPa
Settings | 293.15 K | 303.15 K | 313.15 K | 323.15 K
x2 = 0 | 1.54049 ± 0.001 | 1.53635 ± 0.001 | 1.53215 ± 0.001 | 1.52796 ± 0.001
x2 = 0.05 | 1.53607 ± 0.001 | 1.53175 ± 0.001 | 1.52743 ± 0.001 | 1.52308 ± 0.001
x2 = 0.1 | 1.53119 ± 0.001 | 1.52681 ± 0.001 | 1.5225 ± 0.001 | 1.51807 ± 0.001
x2 = 0.1504 | 1.52584 ± 0.001 | 1.5215 ± 0.001 | 1.51718 ± 0.001 | 1.51273 ± 0.001
x2 = 0.1999 | 1.52041 ± 0.001 | 1.51591 ± 0.001 | 1.51156 ± 0.001 | 1.50721 ± 0.001
x2 = 0.2502 | 1.51444 ± 0.001 | 1.51002 ± 0.001 | 1.5056 ± 0.001 | 1.50123 ± 0.001
x2 = 0.3003 | 1.50804 ± 0.001 | 1.50367 ± 0.001 | 1.49935 ± 0.001 | 1.49494 ± 0.001
x2 = 0.3499 | 1.50154 ± 0.001 | 1.49716 ± 0.001 | 1.49265 ± 0.001 | 1.48825 ± 0.001
x2 = 0.3998 | 1.49454 ± 0.001 | 1.49014 ± 0.001 | 1.48568 ± 0.001 | 1.48127 ± 0.001
x2 = 0.45 | 1.48707 ± 0.001 | 1.4826 ± 0.001 | 1.47818 ± 0.001 | 1.47378 ± 0.001
x2 = 0.5001 | 1.4791 ± 0.001 | 1.47469 ± 0.001 | 1.4703 ± 0.001 | 1.46589 ± 0.001
x2 = 0.55 | 1.47074 ± 0.001 | 1.46632 ± 0.001 | 1.46191 ± 0.001 | 1.45755 ± 0.001
x2 = 0.5999 | 1.46176 ± 0.001 | 1.45731 ± 0.001 | 1.45296 ± 0.001 | 1.44855 ± 0.001
x2 = 0.65 | 1.4522 ± 0.001 | 1.4477 ± 0.001 | 1.44333 ± 0.001 | 1.43892 ± 0.001
x2 = 0.6997 | 1.44199 ± 0.001 | 1.43754 ± 0.001 | 1.43309 ± 0.001 | 1.4287 ± 0.001
x2 = 0.75 | 1.43095 ± 0.001 | 1.42651 ± 0.001 | 1.42212 ± 0.001 | 1.41775 ± 0.001
x2 = 0.7999 | 1.41922 ± 0.001 | 1.41479 ± 0.001 | 1.4104 ± 0.001 | 1.40607 ± 0.001
x2 = 0.8496 | 1.40661 ± 0.001 | 1.40202 ± 0.001 | 1.39761 ± 0.001 | 1.39329 ± 0.001
x2 = 0.8998 | 1.39275 ± 0.001 | 1.38825 ± 0.001 | 1.38389 ± 0.001 | 1.37963 ± 0.001
x2 = 0.95 | 1.37776 ± 0.001 | 1.37331 ± 0.001 | 1.36905 ± 0.001 | 1.36475 ± 0.001

CC(=O)OCc1ccccc1 [benzyl ethanoate] + CCO
refractive index, 100.8 kPa
Settings | 293.15 K | 303.15 K | 313.15 K | 323.15 K
x2 = 0 | 1.50245 ± 0.0011 | 1.49776 ± 0.0011 | 1.49309 ± 0.0011 | 1.48834 ± 0.0011
x2 = 0.0502 | 1.49958 ± 0.0011 | 1.49479 ± 0.0011 | 1.49006 ± 0.0011 | 1.48521 ± 0.0011
x2 = 0.1 | 1.49646 ± 0.0011 | 1.49168 ± 0.0011 | 1.48693 ± 0.0011 | 1.48205 ± 0.0011
x2 = 0.1498 | 1.49316 ± 0.001 | 1.48838 ± 0.001 | 1.48362 ± 0.001 | 1.47874 ± 0.001
x2 = 0.1998 | 1.48968 ± 0.001 | 1.48491 ± 0.001 | 1.48007 ± 0.001 | 1.47517 ± 0.001
x2 = 0.2499 | 1.48589 ± 0.001 | 1.48118 ± 0.001 | 1.47629 ± 0.001 | 1.47143 ± 0.001
x2 = 0.2998 | 1.4819 ± 0.001 | 1.47715 ± 0.001 | 1.47228 ± 0.001 | 1.46739 ± 0.001
x2 = 0.35 | 1.4776 ± 0.001 | 1.47284 ± 0.001 | 1.46794 ± 0.001 | 1.46309 ± 0.001
x2 = 0.4 | 1.47289 ± 0.001 | 1.46818 ± 0.001 | 1.46327 ± 0.001 | 1.45847 ± 0.001
x2 = 0.4501 | 1.46787 ± 0.001 | 1.46316 ± 0.001 | 1.45826 ± 0.001 | 1.45346 ± 0.001
x2 = 0.5 | 1.46245 ± 0.001 | 1.45772 ± 0.001 | 1.45286 ± 0.001 | 1.44807 ± 0.001
x2 = 0.5499 | 1.45652 ± 0.001 | 1.45179 ± 0.001 | 1.44703 ± 0.001 | 1.44215 ± 0.001
x2 = 0.6 | 1.44996 ± 0.001 | 1.44531 ± 0.001 | 1.44052 ± 0.001 | 1.43561 ± 0.001
x2 = 0.65 | 1.44279 ± 0.001 | 1.43815 ± 0.001 | 1.43339 ± 0.001 | 1.42851 ± 0.001
x2 = 0.7 | 1.43481 ± 0.001 | 1.43018 ± 0.001 | 1.42552 ± 0.001 | 1.42067 ± 0.001
x2 = 0.7499 | 1.42603 ± 0.001 | 1.42142 ± 0.001 | 1.41682 ± 0.001 | 1.41198 ± 0.001
x2 = 0.7999 | 1.41623 ± 0.001 | 1.41163 ± 0.001 | 1.40711 ± 0.001 | 1.40231 ± 0.001
x2 = 0.85 | 1.40518 ± 0.001 | 1.40062 ± 0.001 | 1.39617 ± 0.001 | 1.39132 ± 0.001
x2 = 0.9 | 1.39263 ± 0.001 | 1.38811 ± 0.001 | 1.38375 ± 0.001 | 1.37895 ± 0.001
x2 = 0.95 | 1.3782 ± 0.001 | 1.37384 ± 0.001 | 1.36951 ± 0.001 | 1.36489 ± 0.001

CC(=O)OCc1ccccc1 [benzyl ethanoate] + OCc1ccccc1
refractive index, 101 kPa
Settings | 293.15 K | 303.15 K | 313.15 K | 323.15 K
x1 = 0.05 | 1.53821 ± 0.00033 | 1.5339 ± 0.00033 | 1.52962 ± 0.00033 | 1.52532 ± 0.00033
x1 = 0.1001 | 1.53584 ± 0.00033 | 1.53143 ± 0.00033 | 1.52715 ± 0.00033 | 1.52278 ± 0.00033
x1 = 0.1502 | 1.53352 ± 0.00033 | 1.52903 ± 0.00033 | 1.52471 ± 0.00033 | 1.5203 ± 0.00033
x1 = 0.2001 | 1.53127 ± 0.00033 | 1.52673 ± 0.00033 | 1.52235 ± 0.00033 | 1.51791 ± 0.00033
x1 = 0.25 | 1.52907 ± 0.00034 | 1.52449 ± 0.00034 | 1.52007 ± 0.00034 | 1.5156 ± 0.00034
x1 = 0.3 | 1.52689 ± 0.00034 | 1.52231 ± 0.00034 | 1.51785 ± 0.00034 | 1.51335 ± 0.00034
x1 = 0.3498 | 1.5248 ± 0.00034 | 1.52022 ± 0.00034 | 1.51571 ± 0.00034 | 1.51118 ± 0.00034
x1 = 0.4001 | 1.52279 ± 0.00034 | 1.51819 ± 0.00034 | 1.51362 ± 0.00034 | 1.50908 ± 0.00034
x1 = 0.45 | 1.52083 ± 0.00034 | 1.51621 ± 0.00034 | 1.5116 ± 0.00034 | 1.50704 ± 0.00034
x1 = 0.5 | 1.51893 ± 0.00035 | 1.51428 ± 0.00035 | 1.50964 ± 0.00035 | 1.50506 ± 0.00035
x1 = 0.5501 | 1.5171 ± 0.00035 | 1.51239 ± 0.00035 | 1.50774 ± 0.00035 | 1.50314 ± 0.00035
x1 = 0.6001 | 1.5153 ± 0.00035 | 1.51057 ± 0.00035 | 1.5059 ± 0.00035 | 1.50128 ± 0.00035
x1 = 0.65 | 1.51352 ± 0.00035 | 1.50881 ± 0.00035 | 1.5041 ± 0.00035 | 1.49946 ± 0.00035
x1 = 0.6999 | 1.51182 ± 0.00035 | 1.50711 ± 0.00035 | 1.50237 ± 0.00035 | 1.49771 ± 0.00035
x1 = 0.7502 | 1.51014 ± 0.00036 | 1.50545 ± 0.00036 | 1.5007 ± 0.00036 | 1.49598 ± 0.00036
x1 = 0.8 | 1.50852 ± 0.00036 | 1.50383 ± 0.00036 | 1.49906 ± 0.00036 | 1.49434 ± 0.00036
x1 = 0.85 | 1.50696 ± 0.00036 | 1.50227 ± 0.00036 | 1.49748 ± 0.00036 | 1.49276 ± 0.00036
x1 = 0.9 | 1.50544 ± 0.00036 | 1.50075 ± 0.00036 | 1.49596 ± 0.00036 | 1.49124 ± 0.00036
x1 = 0.95 | 1.50396 ± 0.00037 | 1.49926 ± 0.00037 | 1.4945 ± 0.00037 | 1.48976 ± 0.00037
x1 = 1 | 1.50245 ± 0.00037 | 1.49776 ± 0.00037 | 1.49309 ± 0.00037 | 1.48834 ± 0.00037
